These results are taken from patent US7820623B2 (priority 2006, dated 2010).

Assay [1] deals with thapsigargin-induced IL-2 production in human whole blood.
The test system of assay [2] is thapsigargin-induced IFN-g production in human whole blood. The assay is classed as cell-based.
[3] abbreviates: read-out: Analogue Activity (IC50) WB/IL-2.
[4] abbreviates: read-out: Analogue Activity (IC50) WB/IFNg.

Like-named read-outs stand apart in the source and are kept apart here. Bridge positions count the residues as written; N and C are the ends. Square brackets hold non-standard residues; d marks the D form. Peptide text beside a SMILES is read from it. 1Nal = N[C@@H](Cc1cccc2ccccc12)C(=O)O

Consider `CC[C@H](C)[C@@H]1NC(=O)[C@H](CCCCN)NC(=O)[C@@H](NC(=O)[C@H](CCCCN)NC(=O)[C@@H](NC(=O)[C@H](CC(N)=O)NC(=O)[C@@H](NC(=O)[C@@H](NC(=O)[C@@H](NC(=O)CN)C(C)C)[C@@H](C)CC)[C@@H](C)CC)C(C)C)CSSC[C@@H]2NC(=O)[C@H](CCCCN)NC(=O)[C@H](Cc3cccc4ccccc34)NC(=O)[C@H](Cc3ccccc3)NC(=O)[C@H](CCCNC(=N)N)NC(=O)[C@H](CCSC)NC(=O)CNC(=O)[C@H](C)NC(=O)[C@H](CCCCN)NC(=O)[C@H](CCCCN)NC(=O)[C@@H]3CSSC[C@@H](C(=O)N[C@H](C(=O)N4CCC[C@H]4C(=O)N[C@@H](CCCCN)C(=O)O)[C@@H](C)O)NC(=O)[C@H](Cc4c[nH]cn4)NC(=O)[C@H](CSSC[C@H](NC(=O)[C@H](CCC(N)=O)NC(=O)[C@H](CCCNC(=N)N)NC(=O)[C@H](CO)NC1=O)C(=O)N[C@@H](CC(C)C)C(=O)N[C@@H](CCC(=O)O)C(=O)N1CCC[C@H]1C(=O)N3)NC(=O)[C@H](CCCCN)NC(=O)CNC(=O)[C@H](CC(N)=O)NC(=O)[C@H](CCSC)NC2=O` [G26Nal] (H-GVIINVKCKISRQCLEPCKKAGMRF[1Nal]KCMNGKCHCTPK-OH; disulfide 8-28, 14-33, 18-35), for which the IC50 worked out at 9900 pM in assay [1] (setting [3]) and 10700 pM in assay [2] (setting [4]).
GVIINVKCKISPQCLKPCKDAGIRFGKCINGKCACTPK: the IC50 in assay [1] (read-out: Average IC50 IL-2) is 514 pM; in assay [2] (read-out: Average IC50 IFNg), 513 pM.
Take `CC[C@H](C)[C@@H]1NC(=O)[C@H](CCCCN)NC(=O)[C@@H](NC(=O)[C@H](CCCCN)NC(=O)[C@@H](NC(=O)[C@H](CC(N)=O)NC(=O)[C@@H](NC(=O)[C@@H](NC(=O)[C@@H](NC(=O)CN)C(C)C)[C@@H](C)CC)[C@@H](C)CC)C(C)C)CSSC[C@@H]2NC(=O)[C@H](CCCCN)NC(=O)CNC(=O)[C@H](Cc3ccccc3)NC(=O)[C@H](CCCNC(=N)N)NC(=O)[C@H](CCSC)NC(=O)[C@H](CCC(=O)O)NC(=O)[C@H](C)NC(=O)[C@H](CCCCN)NC(=O)[C@H](CCCCN)NC(=O)[C@@H]3CSSC[C@@H](C(=O)N[C@H](C(=O)N4CCC[C@H]4C(=O)N[C@@H](CCCCN)C(=O)O)[C@@H](C)O)NC(=O)[C@H](Cc4c[nH]cn4)NC(=O)[C@H](CSSC[C@H](NC(=O)[C@H](CCC(N)=O)NC(=O)[C@H](CCCNC(=N)N)NC(=O)[C@H](CO)NC1=O)C(=O)N[C@@H](CC(C)C)C(=O)N[C@@H](CCC(=O)O)C(=O)N1CCC[C@H]1C(=O)N3)NC(=O)[C@H](CCCCN)NC(=O)CNC(=O)[C@H](CC(N)=O)NC(=O)[C@H](CCSC)NC2=O` [G22E] (H-GVIINVKCKISRQCLEPCKKAEMRFGKCMNGKCHCTPK-OH; disulfide 8-28, 14-33, 18-35): the results for the IC50 in assay [1] (setting [3]) and in assay [2] (setting [4]) were 109 pM and 164 pM, respectively.
The corresponding values for `CC[C@H](C)[C@@H]1NC(=O)[C@H](CCCCN)NC(=O)[C@@H](NC(=O)[C@H](CCCCN)NC(=O)[C@@H](NC(=O)[C@H](CC(N)=O)NC(=O)[C@@H](NC(=O)[C@@H](NC(=O)[C@@H](NC(=O)CN)C(C)C)[C@@H](C)CC)[C@@H](C)CC)C(C)C)CSSC[C@@H]2NC(=O)[C@H](CCCNC(=N)N)NC(=O)CNC(=O)[C@H](Cc3ccccc3)NC(=O)[C@H](CCCNC(=N)N)NC(=O)[C@H](CCSC)NC(=O)CNC(=O)[C@H](C)NC(=O)[C@H](CCCCN)NC(=O)[C@H](CCCCN)NC(=O)[C@@H]3CSSC[C@@H](C(=O)N[C@H](C(=O)N4CCC[C@H]4C(=O)N[C@@H](CCCCN)C(=O)O)[C@@H](C)O)NC(=O)[C@H](Cc4c[nH]cn4)NC(=O)[C@H](CSSC[C@H](NC(=O)[C@H](CCC(N)=O)NC(=O)[C@H](CCCNC(=N)N)NC(=O)[C@H](CO)NC1=O)C(=O)N[C@@H](CC(C)C)C(=O)N[C@@H](CCC(=O)O)C(=O)N1CCC[C@H]1C(=O)N3)NC(=O)[C@H](CCCCN)NC(=O)CNC(=O)[C@H](CC(N)=O)NC(=O)[C@H](CCSC)NC2=O` [K27R] (H-GVIINVKCKISRQCLEPCKKAGMRFGRCMNGKCHCTPK-OH; disulfide 8-28, 14-33, 18-35) are 15100 pM and 10700 pM.
Take `CC[C@H](C)[C@@H]1NC(=O)[C@H](CCCCN)NC(=O)[C@@H](NC(=O)[C@H](CCCCN)NC(=O)[C@@H](NC(=O)[C@H](CC(N)=O)NC(=O)[C@@H](NC(=O)[C@@H](NC(=O)[C@@H](NC(=O)CN)C(C)C)[C@@H](C)CC)[C@@H](C)CC)C(C)C)CSSC[C@@H]2NC(=O)[C@H](CCCCN)NC(=O)CNC(=O)[C@H](Cc3ccccc3)NC(=O)[C@H](CCCNC(=N)N)NC(=O)[C@H](CCCNC(=N)N)NC(=O)CNC(=O)[C@H](C)NC(=O)[C@H](CCCCN)NC(=O)[C@H](CCCCN)NC(=O)[C@@H]3CSSC[C@@H](C(=O)N[C@H](C(=O)N4CCC[C@H]4C(=O)N[C@@H](CCCCN)C(=O)O)[C@@H](C)O)NC(=O)[C@H](Cc4c[nH]cn4)NC(=O)[C@H](CSSC[C@H](NC(=O)[C@H](CCC(N)=O)NC(=O)[C@H](CCCNC(=N)N)NC(=O)[C@H](CO)NC1=O)C(=O)N[C@@H](CC(C)C)C(=O)N[C@@H](CCC(=O)O)C(=O)N1CCC[C@H]1C(=O)N3)NC(=O)[C@H](CCCCN)NC(=O)CNC(=O)[C@H](CC(N)=O)NC(=O)[C@H](CCSC)NC2=O` [M23R] (H-GVIINVKCKISRQCLEPCKKAGRRFGKCMNGKCHCTPK-OH; disulfide 8-28, 14-33, 18-35): the values for the IC50 in assay [1] (setting [3]) and in assay [2] (setting [4]) were 182 pM and 148 pM, respectively.
The corresponding values for `CC[C@H](C)[C@@H]1NC(=O)[C@H](CCCNC(=N)N)NC(=O)[C@@H](NC(=O)[C@H](CCCCN)NC(=O)[C@@H](NC(=O)[C@H](CC(N)=O)NC(=O)[C@@H](NC(=O)[C@@H](NC(=O)[C@@H](NC(=O)CN)C(C)C)[C@@H](C)CC)[C@@H](C)CC)C(C)C)CSSC[C@@H]2NC(=O)[C@H](CCCCN)NC(=O)CNC(=O)[C@H](Cc3ccccc3)NC(=O)[C@H](CCCNC(=N)N)NC(=O)[C@H](CCSC)NC(=O)CNC(=O)[C@H](C)NC(=O)[C@H](CCCCN)NC(=O)[C@H](CCCCN)NC(=O)[C@@H]3CSSC[C@@H](C(=O)N[C@H](C(=O)N4CCC[C@H]4C(=O)N[C@@H](CCCCN)C(=O)O)[C@@H](C)O)NC(=O)[C@H](Cc4c[nH]cn4)NC(=O)[C@H](CSSC[C@H](NC(=O)[C@H](CCC(N)=O)NC(=O)[C@H](CCCNC(=N)N)NC(=O)[C@H](CO)NC1=O)C(=O)N[C@@H](CC(C)C)C(=O)N[C@@H](CCC(=O)O)C(=O)N1CCC[C@H]1C(=O)N3)NC(=O)[C@H](CCCCN)NC(=O)CNC(=O)[C@H](CC(N)=O)NC(=O)[C@H](CCSC)NC2=O` [K9R] (H-GVIINVKCRISRQCLEPCKKAGMRFGKCMNGKCHCTPK-OH; disulfide 8-28, 14-33, 18-35) are 107 pM and 77 pM.
Consider “GVIINVKCKISRQCLEPCKKAGMRFGKCMAGKCHCTPK [Ala-30 (SEQ ID No: 1425)]”, for which the figures for the IC50 in assay [1] (read-out: Average IC50 IL-2) and in assay [2] (read-out: Average IC50 IFNg) were 971 pM and 637 pM, respectively.
“E16K, K20D, T36Y (GVIINVKCKISRQCLKPCKDAGMRFGKCMNGKCHCYPK; Definition of Artificial Sequence: Synthetic peptide)”: the values for the IC50 in assay [1] (read-out: WB/IL-2 (IC50)) and in assay [2] (read-out: WB/IFNg (IC50)) were 639 pM and 923 pM, respectively.

B1: FcLoop-G2-OSK-G2 (protein)
chain: MDKTHTCPPCPAPELLGGPSVFLFPPKPKDTLMISRTPEVTCVVVDVSHEDPEVKFNWYVDGVEVHNAKTKPREEQYNSTYRVVSVLTVLHQDWLNGKEYKCKVSNKALPAPIEKTISKAKGQPREPQVYTLPPSRDELGGGVIINVKCKISRQCLEPCKKAGMRFGKCMNGKCHCTPKGGTKNQVSLTCLVKGFYPSDIAVEWESNGQPENNYKTTPPVLDSDGSFFLYSKLTVDKSRWQQGNVFSCSVMHEALHNHYTQKSLSLSPGK
Turning to B1, the results for the IC50 in assay [1] (read-out: WB/IL-2 (IC50)) and in assay [2] (read-out: WB/IFNg (IC50)) were 28 pM and 56 pM, respectively.

B2: FcLoop-G2-ShK-G2 (protein)
chain: MDKTHTCPPCPAPELLGGPSVFLFPPKPKDTLMISRTPEVTCVVVDVSHEDPEVKFNWYVDGVEVHNAKTKPREEQYNSTYRVVSVLTVLHQDWLNGKEYKCKVSNKALPAPIEKTISKAKGQPREPQVYTLPPSRDELGGRSCIDTIPKSRCTAFQCKHSMKYRLSFCRKTCGTCGGTKNQVSLTCLVKGFYPSDIAVEWESNGQPENNYKTTPPVLDSDGSFFLYSKLTVDKSRWQQGNVFSCSVMHEALHNHYTQKSLSLSPGK
In the case of B2, the IC50 in assay [1] (read-out: WB/IL-2 (IC50)) came out at 109 pM; in assay [2] (read-out: WB/IFNg (IC50)), 119 pM.

B3: FcLoop-G4-OSK-G2 (protein)
chain: MDKTHTCPPCPAPELLGGPSVFLFPPKPKDTLMISRTPEVTCVVVDVSHEDPEVKFNWYVDGVEVHNAKTKPREEQYNSTYRVVSVLTVLHQDWLNGKEYKCKVSNKALPAPIEKTISKAKGQPREPQVYTLPPSRDELGGGGGVIINVKCKISRQCLEPCKKAGMRFGKCMNGKCHCTPKGGTKNQVSLTCLVKGFYPSDIAVEWESNGQPENNYKTTPPVLDSDGSFFLYSKLTVDKSRWQQGNVFSCSVMHEALHNHYTQKSLSLSPGK
For the molecule B3, the IC50 in assay [1] (read-out: WB/IL-2 (IC50)) was found to be 150 pM; in assay [2] (read-out: WB/IFNg (IC50)), 195 pM.

B4: 20k PEG-L2-6H-L3-CH2-L10-OsK1(1-38) (conjugate)
chain: MGGHHHHHHGGGPSVFLFPPKPKDTLMISRTPEVTCVVVDVSHEDPEVKFNWYVDGVEVHNAKTKPREEQYNSTYRVVSVLTVLHQDWLNGKEYKCKVSNKALPAPIEKTISGGGGSGGGGSGVIINVKCKISRQCLEPCKKAGMRFGKCMNGKCHCTPK
For B4, the IC50 stood at 8320 pM in assay [1] (read-out: WB/IL-2 (IC50)) and 50100 pM in assay [2] (read-out: WB/IFNg (IC50)).
